Data published in US6896893B2, “Needle-less parenteral introduction device” (Societe de Conseils de Recherches et d'Applications …, priority 1994, dated 2005).

What was measured:
[1] = pharmacokinetic profiles of injected tablets vs conventional solutions; type: in vivo; conditions: tablets with gelatin and PVP 5-10%
Procedure: A formulation of a somatostatin analogue, D-Nal-cyclo [Cys-Tyr-D-Trp-Lys-Val-Cys]-Thr-NH2 was made into injectable tablets by associating the dry material with gelatin and polyvinylpyrrolidone (PVP, 5-10%). The tablets were injected and compared to conventional solutions in terms of pharmacokinetic profiles.

[2] = type: physicochemical
Procedure: (§1) A test was conducted with Insulin Human Recombinant (IHR) and Insulin Bovine Pancreas (IBP). […] IHR and IBP represent about 26 Insulin Units (IU) per mg.
(§2) A synthetic anti-PAF, 4,7,8,10-tetrahydro-1-methyl-6-(2-chlorphenyl)-9-(4-methoxyphenylthiocarbamoyl)-pyrido-[4′,3′-4,5] thieno [3,2-f]-1,2,4-triazolo [4,5-a] 1,4-diazepine, and a natural anti-PAF, ginkgolide B, were compared to conventional administration. The synthetic anti-PAF cannot conventionally be used parenterally because of its insolubility.

[3] = test system: PAF; assay: anti-PAF pharmacological effect, solid form vs conventional administration; type: in vivo
From the text: as §2

[4] = insulin unit content per mg
Procedure: as §1

| Compound | water solubility [2] | Insulin Units (IU) per mg [4] | also measured |
| --- | --- | --- | --- |
| D-Nal-cyclo [Cys-Tyr-D-Trp-Lys-Val-Cys]-Thr-NH2 |  |  | pharmacokinetic profile / pharmacological results, injected tablets vs conventional solutions [1]: substantially the same pharmacological results |
| CC1C(=O)OC2C(O)C34C5CC(C(C)(C)C)C36C(OC(=O)C6O)OC4(C(=O)O5)C12O (centres unmarked) [ginkgolide B] | slightly soluble |  | effect after initial injection, solid vs solution ([3]; same dose, solution pH 8.75): the effect was the same after initial injection; duration of effect ([3]; solid dry formulation, same dose): 24 h; duration of effect ([3]; solution form (pH 8.75), same dose): 2 h |
| COc1ccc(NC(=S)N2CCc3c(sc4c3C(c3ccccc3Cl)=NCc3nnc(C)n3-4)C2)cc1 [synthetic anti-PAF, 4,7,8,10-tetrahydro-1-methyl-6-(2-chlorphenyl)-9-(4-methoxyphenylthiocarbamoyl)-pyrido-[4′,3′-4,5] thieno [3,2-f]-1,2,4-triazolo [4,5-a] 1,4-diazepine] | insolubility |  | correlation between pharmacological effect and blood concentration ([3]; solid form): very good correlation |
| Insulin Bovine Pancreas [IBP] | water insoluble | about 26 IU per mg |  |
| Insulin Human Recombinant [IHR] | water soluble | about 26 IU per mg |  |
